Converted amounts (≈) assume the structure as drawn.
Experiments:
[1] = Approximate solubility in water at different pH values

CC[C@H]1OC(=O)[C@H](C)[C@@H](O[C@H]2C[C@@](C)(OC)[C@@H](O)[C@H](C)O2)[C@H](C)[C@@H](O[C@@H]2O[C@H](C)C[C@H](N(C)C)[C@H]2O)[C@](C)(OC)C[C@@H](C)C(=O)[C@H](C)[C@@H](O)[C@]1(C)O [clarithromycin]
solubility ([1]; pH 1, simulated gastric fluid): 26100 µg/mL (≈ 34.9 mM)
solubility ([1]; pH 4.5, aqueous buffer): 3900 µg/mL (≈ 5.21 mM)
solubility ([1]; pH 6, aqueous buffer): 3300 µg/mL (≈ 4.41 mM)

CC[C@H]1OC(=O)[C@H](C)[C@@H](O[C@H]2C[C@@](C)(OC)[C@@H](O)[C@H](C)O2)[C@H](C)[C@@H](O[C@@H]2O[C@H](C)C[C@H](N(C)C)[C@H]2O)[C@](C)(O)C[C@](C)(F)C(=O)[C@H](C)[C@@H](O)[C@]1(C)O [flurithromycin]
solubility (physchem; pH 1, simulated gastric fluid): 22000 µg/mL (≈ 29.3 mM)
solubility (physchem; pH 2, simulated gastric fluid): 11800 µg/mL (≈ 15.7 mM)
solubility (physchem; pH 4.5, aqueous buffer): 4200 µg/mL (≈ 5.59 mM)
solubility (physchem; pH 6, aqueous buffer): 300 µg/mL (≈ 0.399 mM)
